Laboratory results taken from US6632795B1, “Dolastatin-15 derivatives in combination with taxanes” (BASF Aktiengesellschaft, priority 1997, dated 2003).
Peptide text beside a SMILES is read from it.

How the values were obtained:
[1] = tested on: LX-1 human lung tumor xenograft; assay: LX-1 human tumor xenograft model; assay type: in vivo, human (xenograft in athymic nude mice); details: Q2Dx3, 5,12,19
Protocol: (§1) Human tumors from lung (LX-1), colon (CX-1) and prostate (PC-3) which had been grown in athymic nude mice were transplanted (xenografted) into new recipient mice, as is well known in the art. The transplanted tumor fragments were approximately 50 mg in size. The day of transplantation was designated as day 0. The combination therapy of the present invention was evaluated for anti-tumor efficacy following administration to the xenograft-bearing mice.
(§2) Combination therapy was accomplished by intravenous administration of both drugs. […] In other words, treatment consisted of 3 cycles, starting on days 5, 12 and 19 post tumor implantation. One cycle of treatment consisted of treatment every other day for a total of three times.
(§3) Tumor diameters and body weights were measured twice weekly. Tumor volumes were calculated using the diameters measured with Vernier calipers, and the formula:
(§4) (length×width^2)/2=mg of tumor weight
(§5) Mean tumor weights (MTW) were calculated for each treatment group, and T/C values determined for each group relative to the untreated control tumors.
(§6) Results are also presented as Net log Cell Kill and are calculated as follows: [formula]
(§7) T and C=The median days required for the control and treated tumors to reach a specified tumor size, in this instance 2000 mm^3.
(§8) Doubling Time=Time required for control tumors to double in size.
(§9) The Q2dx3; 5, 12 and 19 dosing regimen described above was used in this example. Paclitaxel was administered IV one hour after Compound (xvii) was administered IV.

[2] = tested on: PC-3 human prostate tumor xenograft; assay: PC-3 human tumor xenograft model; assay type: in vivo, human (xenograft in athymic nude mice); details: Q2Dx3, 5,12,19; for MTW d35 % T/C: mean tumor weight day 35; for R[…]: of 6 animals
Protocol: as §1, §2, §3, §4, §5, §6, §7, §8
The Q2dx3; 5, 12 and 19 dosing regimen described above was used in this example. Paclitaxel was administered IP one hour after Compound (xvii) was administered IV. The optimal single dose of both paclitaxel and Compound (xvii) was not determined.

[3] = tested on: CX-1 human colon tumor xenograft; assay: CX-1 human tumor xenograft model; assay type: in vivo, human (xenograft in athymic nude mice); details: Q2Dx3, 5,12,19
Protocol: as §1, §2, §3, §4, §5, §6, §7, §8, §9

[4] = tested on: P388 tumor cells (murine lymphocytic leukemia cell line); assay: P388 in vivo tumor model (ascites, intraperitoneal implant); parameters: species or system mice; details: Q4Dx3, 1
Protocol: The P388 tumor model employs a murine lymphocytic leukemia cell line (See Schabel et al., Pharmac. Ther. A, 1:411-435). The P388 tumor cells used in this invention, were harvested from donor mice by peritoneal lavage at day 7 post transplant. 1×10^6 P388 tumor cells were then implanted intraperitoneally in a volume of 0.5 ml in mice.
A typical dosing regimen includes initiation of treatment approximately one day post transplant followed by treatment on days 5 and 9 post transplant. Generally the compounds of Formula I are administered intravenously (i.v.) and the paclitaxel, taxotere or modified taxane or taxoid analog is administered intraperitoneally (i.p.).
Therapeutic results of the combinations of the invention against P388 cells, are presented in terms of increase in lifespan reflected by the relative median survival time (MST) of treated (T) versus control (C) group (survival period for untreated mice is generally in the range of 11 to 13 days) and is represented as %T/C values. According to the National Cancer Institute guidelines a %T/C in the range or 128-190% indicates a drug with moderate to good activity. In addition, the Net log Cell Kill is used to compare efficacy of different schedules and combinations, and is calculated as follows: [formula]
Doubling Time=time required for control tumors to double once (0.4 days)
T and C=the median survival time (days) for the control (C) and treated (T) mice.
Duration of treatment with drug 0.332=Derived constant
1×10^6 P388 tumor cells were transplanted intraperitoneally in a volume of 0.5 ml in mice. Treatment was initiated approximately 1 day later followed by treatment on both day 5 and day 9, post transplant. Compound (xvii) was administered IV while paclitaxel was administered IP. […] The dosing was sequential with compound (xvii) being administered first followed by paclitaxel one hour later.

[5] = tested on: National Cancer Institute's P388 lymphocytic leukemia cell line; details: cited from earlier work
[6] = cited from earlier work
[7] = paclitaxel 10 mg/kg IV alone, of 6 animals

CC(C)[C@H](NC(=O)[C@H](C(C)C)N(C)C)C(=O)N(C)[C@H](C(=O)N1CCC[C@H]1C(=O)N1CCC[C@H]1C(=O)NCc1ccccc1)C(C)C [Compound (xvii)] (HELM PEPTIDE1{[CC(C)[C@@H](C(=O)[*:2])N(C)C].V.[meV].P.P.[c1ccc(CN[*:1])cc1]}$$$$V2.0)
% Toxic Death ([1]; (xvii) 7.5 mg/kg IV alone): 0% | % Toxic Death ([1]; (xvii) 15 mg/kg IV alone): 0% | % Toxic Death ([1]; (xvii) 25 mg/kg IV alone): 0% | % Toxic Death ([2]; (xvii) 30 mg/kg IV alone): 33% | % Toxic Death ([3]; (xvii) 25 mg/kg IV alone): 83% | % Toxic Death ([4]; (xvii) 20 mg/kg IV alone): 0% | % Toxic Death ([4]; (xvii) 40 mg/kg IV alone): 0% | % Toxic Death ([4]; (xvii) 60 mg/kg IV alone): 0%

CC(=O)O[C@H]1C(=O)[C@@]2(C)[C@H]([C@H](OC(=O)c3ccccc3)[C@]3(O)C[C@H](OC(=O)[C@H](O)[C@@H](NC(=O)c4ccccc4)c4ccccc4)C(C)=C1C3(C)C)[C@]1(OC(C)=O)CO[C@@H]1C[C@@H]2O [Paclitaxel]
% Toxic Death ([1]; paclitaxel 10 mg/kg IV alone): 0% | Net Log Cell Kill ([1]; paclitaxel 10 mg/kg IV alone): −0.374 | MTW d27 % T/C ([1]; paclitaxel 10 mg/kg IV alone, mean tumor weight day 27): 10.5% | R[…] [1, 7]: 2 | % Toxic Death ([2]; paclitaxel 10 mg/kg IP alone): 0% | Net Log Cell Kill ([2]; paclitaxel 10 mg/kg IP alone): −0.672 | MTW d35 % T/C ([2]; paclitaxel 10 mg/kg IP alone): 55.12% | R[…] ([2]; paclitaxel 10 mg/kg IP alone): 2 | % Toxic Death ([2]; paclitaxel 20 mg/kg IP alone): 0% | Net Log Cell Kill ([2]; paclitaxel 20 mg/kg IP alone): 1.98 | MTW d35 % T/C ([2]; paclitaxel 20 mg/kg IP alone): 2.86% | % Toxic Death ([2]; paclitaxel 30 mg/kg IP alone): 17% | Net Log Cell Kill ([2]; paclitaxel 30 mg/kg IP alone): toxic | MTW d35 % T/C ([2]; paclitaxel 30 mg/kg IP alone): 2% | R[…] ([2]; paclitaxel 30 mg/kg IP alone): 5 | Net Log Cell Kill ([3]; paclitaxel 10 mg/kg IV alone): −0.124 | MTW d55 % T/C ([3]; paclitaxel 10 mg/kg IV alone, mean tumor weight day 55): 38.12% | R[…] [3, 7]: 2 | % T/C (median survival time treated vs control) ([4]; paclitaxel 10 mg/kg IP alone): 183% | % Toxic Death ([4]; paclitaxel 10 mg/kg IP alone): 0% | Net Log Cell Kill ([4]; paclitaxel 10 mg/kg IP alone): 1.33 | % 60 Day Cures ([4]; paclitaxel 20 mg/kg IP alone): 4% | % T/C (median survival time treated vs control) ([4]; paclitaxel 20 mg/kg IP alone): 175% | % Toxic Death ([4]; paclitaxel 20 mg/kg IP alone): 0% | Net Log Cell Kill ([4]; paclitaxel 20 mg/kg IP alone): 0.66 | % 60 Day Cures ([4]; paclitaxel 30 mg/kg IP alone): 3% | % T/C (median survival time treated vs control) ([4]; paclitaxel 30 mg/kg IP alone): 204% | % Toxic Death ([4]; paclitaxel 30 mg/kg IP alone): 8% | Net Log Cell Kill ([4]; paclitaxel 30 mg/kg IP alone): 2.99

Dolastatin-15
inhibition of cell growth (in words) [5]: markedly inhibits the growth | aqueous solubility (in words) [6]: poor aqueous solubility
